Measured values reported in US9884043B2, “RORgammaT inhibitors” (Merck Sharp & Dohme Corp., priority 2011, dated 2018).

Molecular target: T1, 6His(GST)RORgamma-LBD (Homo sapiens, UniProt P51449)
T1 construct: the applied RORgamma-LBD contains a 6-His and GST tag; GST (N); made in house; host or cells: baculovirus-infected Sf-21 insect cells
T1 sequence (P51449 269-508 limits assumed): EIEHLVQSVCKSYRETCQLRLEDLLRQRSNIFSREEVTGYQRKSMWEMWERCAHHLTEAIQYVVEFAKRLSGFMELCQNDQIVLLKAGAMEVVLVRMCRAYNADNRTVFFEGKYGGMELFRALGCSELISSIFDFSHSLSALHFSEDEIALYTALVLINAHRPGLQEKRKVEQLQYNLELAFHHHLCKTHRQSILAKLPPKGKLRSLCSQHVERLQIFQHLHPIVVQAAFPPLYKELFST
Test: TR-FRET assay (Protocol A), RORgamma-LBD / SRC1_2 co-activator peptide interaction
Type: biochemical
Settings: SRC1_2 peptide 0.1 μM, RORgamma-LBD 10 nM, overnight incubation at 4° C.
Excerpt: Activation of RORgammaT activity can be measured using e.g. biochemical TR-FRET assay. In such an assay, interaction of cofactor-derived peptides with human RORgammaT-Ligand Binding Domain (LBD) can be measured.
To identify novel antagonists of RORgammaT, an assay was developed which employs the interaction of RORgammaT with its co-activator peptide SRC1_2. […] The assay was run following three slightly different protocols, i.e. Protocol A, Protocol B, and Protocol C, which are described below.
TR-FRET Assay (Protocol A)
The 6His(GST)RORgamma-LBD was expressed and purified from baculovirus infected Sf-21 insect cells (Bac-to-BAC, Invitrogen) and purified using glutathione sepharose chromatography (GE healthcare). Biotin and His function as anchoring points for streptavidin-allophycocyanin (Strep-APC, Perkin Elmer, C130-100) and anti-His-Europium Cryptate (Perkin Elmer, AD0111), respectively. Since energy transfer between the streptavidin and His-coupled labels APC and europium cryptate can only take place when these labels are in close proximity, measurement of energy transfer in a mixture of biotinylated peptide, His-GR-LBD, streptavidin-APC and anti-His-Europium Cryptate will be indicative for RORy-LBD/peptide binding. […] Changes in peptide binding caused by dose-curves of compounds added to the reaction mixture (DMSO concentration 0.1%), can likewise be monitored.

Structure (SMILES) | EC50 [nM] | pEC50
O=C(O)c1ccc(-c2nn(C(=O)c3c(Cl)cccc3Cl)c3c(F)cccc23)cc1 [Example 3, 4-(1-(2,6-dichlorobenzoyl)-7-fluoro-1H-indazol-3-yl)benzoic acid] | 18.6 | 
O=C(O)c1ccc(-c2nn(C(=O)c3c(Cl)cccc3Cl)c3cccc(F)c23)cc1 [Example 4, 4-(1-(2,6-dichlorobenzoyl)-4-fluoro-1H-indazol-3-yl)benzoic acid] | 8.32 | 
O=C(O)c1ccc(-c2nn(C(=O)c3c(Cl)cccc3Cl)c3cc(F)ccc23)cc1 [Example 5, 4-(1-(2,6-dichlorobenzoyl)-6-fluoro-1H-indazol-3-yl)benzoic acid] | 174 | 
O=C(O)c1ccc(-c2nn(C(=O)c3c(Cl)cccc3Cl)c3cccnc23)cc1 [Example 6A, 4-(1-(2,6-dichlorobenzoyl)-1H-pyrazolo[4,3-b]pyridin-3-yl)benzoic acid] | 13.5 | 
O=C(O)c1ccc(-c2nn(C(=O)c3ccccc3C(F)(F)F)c3cccnc23)cc1 [Example 6B, 4-(1-(2-(trifluoromethyl)benzoyl)-1H-pyrazolo[4,3-b]pyridin-3-yl)benzoic acid] | 224 | 
O=C(O)c1ccc(-c2cn(C(=O)c3c(Cl)cccc3Cl)c3cccnc23)cc1 [Example 7, 4-(1-(2,6-dichlorobenzoyl)-1H-pyrrolo[3,2-b]pyridin-3-yl)benzoic acid] | 14.1 | 
O=C(O)c1ccc(-c2nn(C(=O)c3c(Cl)cccc3Cl)c3ccncc23)cc1 [Example 8, 4-(1-(2,6-dichlorobenzoyl)-1H-pyrazolo[4,3-c]pyridin-3-yl)benzoic acid] | 4900 | 
O=S(=O)(c1ccccc1C(F)(F)F)n1nc(-c2ccc(C(O)(C(F)(F)F)C(F)(F)F)cc2)c2ccccc21 [Example 9, 1,1,1,3,3,3-hexafluoro-2-(4-(1-(2-(trifluoromethyl)phenylsulfonyl)-1H-indazol-3-yl)phenyl)propan-2-ol] | 9330 | 
O=C(O)c1ccc(-c2nn(C(=O)c3c(Cl)cncc3Cl)c3ccccc23)cc1 [Example 11A, 4-(1-(3,5-dichloroisonicotinoyl)-1H-indazol-3-yl)benzoic acid] | 339 | 
O=C(O)c1ccc(-c2nn(C(=O)c3ccccc3Br)c3ccccc23)cc1 [Example 11B, 4-(1-(2-bromobenzoyl)-1H-indazol-3-yl)benzoic acid] | 44.7 | 
COC(=O)c1ccccc1C(=O)n1nc(-c2ccc(C(=O)O)cc2)c2ccccc21 [Example 11C, 4-(1-(2-(methoxycarbonyl)benzoyl)-1H-indazol-3-yl)benzoic acid] | 513 | 
O=C(O)c1ccc(-c2nn(C(=O)C3CCCCC3)c3ccccc23)cc1 [Example 11D, 4-(1-(cyclohexanecarbonyl)-1H-indazol-3-yl)benzoic acid] | 525 | 
O=C(O)c1ccc(-c2nn(C(=O)c3c(Cl)cccc3Br)c3ccccc23)cc1 [Example 11E, 4-(1-(2-bromo-6-chlorobenzoyl)-1H-indazol-3-yl)benzoic acid] | 26.9 | 
O=C(O)c1ccc(-c2nn(C(=O)c3c(F)cccc3C(F)(F)F)c3ccccc23)cc1 [Example 11F, 4-(1-(2-fluoro-6-(trifluoromethyl)benzoyl)-1H-indazol-3-yl)benzoic acid] | 39.8 | 
COc1cccc(F)c1C(=O)n1nc(-c2ccc(C(=O)O)cc2)c2ccccc21 [Example 11G, 4-(1-(2-fluoro-6-methoxybenzoyl)-1H-indazol-3-yl)benzoic acid] | 60.3 | 
O=C(O)c1ccc(-c2nn(C(=O)c3c(Cl)cc(Cl)cc3Cl)c3ccccc23)cc1 [Example 11H, 4-(1-(2,4,6-trichlorobenzoyl)-1H-indazol-3-yl)benzoic acid] | 70.8 | 
Cc1cccc(C)c1C(=O)n1nc(-c2ccc(C(=O)O)cc2)c2ccccc21 [Example 11I, 4-(1-(2,6-dimethylbenzoyl)-1H-indazol-3-yl)benzoic acid] | 72.4 | 
CCOc1ccccc1C(=O)n1nc(-c2ccc(C(=O)O)cc2)c2ccccc21 [Example 11J, 4-(1-(2-ethoxybenzoyl)-1H-indazol-3-yl)benzoic acid] | 1910 | 
O=C(O)c1ccc(-c2nn(C(=O)c3cccc(Cl)c3Cl)c3ccccc23)cc1 [Example 11K, 4-(1-(2,3-dichlorobenzoyl)-1H-indazol-3-yl)benzoic acid] | 21.4 | 
O=C(O)c1ccc(-c2nn(C(=O)c3ccccc3Cl)c3ccccc23)cc1 [Example 11L, 4-(1-(2-chlorobenzoyl)-1H-indazol-3-yl)benzoic acid] | 26.3 | 
Cc1cccc([N+](=O)[O-])c1C(=O)n1nc(-c2ccc(C(=O)O)cc2)c2ccccc21 [Example 11N, 4-(1-(2-methyl-6-nitrobenzoyl)-1H-indazol-3-yl)benzoic acid] | 25.7 | 
O=C(O)c1ccc(-c2nn(S(=O)(=O)c3ccccc3C(F)(F)F)c3ccccc23)cc1 [Example 12, 4-(1-(2-(trifluoromethyl)phenylsulfonyl)-1H-indazol-3-yl)benzoic acid] |  | 7.17
N#Cc1ccccc1S(=O)(=O)n1nc(-c2ccc(C(=O)O)cc2)c2ccccc21 [Example 14, 4-(1-(2-cyanophenylsulfonyl)-1H-indazol-3-yl)benzoic acid] | 1950 | 
O=C(O)c1ccc(-c2nn(S(=O)(=O)c3ccccc3Cl)c3ccncc23)cc1 [Example 16, 4-(1-(2-chlorophenylsulfonyl)-1H-pyrazolo[4,3-c]pyridin-3-yl)benzoic acid] | 955 | 
Cc1cc(C)cc(S(=O)(=O)n2nc(-c3ccc(C(=O)O)cc3F)c3ccccc32)c1 [Example 17, 4-(1-(3,5-dimethylphenylsulfonyl)-1H-indazol-3-yl)-3-fluorobenzoic acid] | 1230 | 
Cc1cc(C)cc(S(=O)(=O)n2nc(-c3ccc(C(=O)O)c(C(F)(F)F)c3)c3ccccc32)c1 [Example 18, 4-(1-(3,5-dimethylphenylsulfonyl)-1H-indazol-3-yl)-2-(trifluoromethyl)benzoic acid] | 3310 | 
O=S(=O)(c1cccc(Cl)c1)n1nc(-c2ccc(-c3nnn[nH]3)cc2)c2ccccc21 [Example 20, 3-(4-(1H-tetrazol-5-yl)phenyl)-1-(3-chlorophenylsulfonyl)-1H-indazole] | 3550 | 

Next, values leading:

EC50 [nM] | pEC50 | Structure (SMILES)
155 |  | O=C(O)c1ccc(-c2nn(S(=O)(=O)c3cccc4cccnc34)c3ccccc23)cc1 [Example 13A, 4-(1-(quinolin-8-ylsulfonyl)-1H-indazol-3-yl)benzoic acid]
79.4 |  | O=C(O)c1ccc(-c2nn(S(=O)(=O)c3ccccc3Br)c3ccccc23)cc1 [Example 13B, 4-(1-(2-bromophenylsulfonyl)-1H-indazol-3-yl)benzoic acid]
75.9 |  | O=C(O)c1ccc(-c2nn(S(=O)(=O)c3cc(Cl)ccc3Cl)c3ccccc23)cc1 [Example 13C, 4-(1-(2,5-dichlorophenylsulfonyl)-1H-indazol-3-yl)benzoic acid]
52.5 |  | Cc1c(Cl)cccc1S(=O)(=O)n1nc(-c2ccc(C(=O)O)cc2)c2ccccc21 [Example 13D, 4-(1-(3-chloro-2-methylphenylsulfonyl)-1H-indazol-3-yl)benzoic acid]
26.3 |  | O=C(O)c1ccc(-c2nn(S(=O)(=O)c3cccc(Cl)c3Cl)c3ccccc23)cc1 [Example 13E, 4-(1-(2,3-dichlorophenylsulfonyl)-1H-indazol-3-yl)benzoic acid]
166 |  | O=C(O)c1ccc(-c2nn(S(=O)(=O)c3ccc(Cl)c(Cl)c3Cl)c3ccccc23)cc1 [Example 13F, 4-(1-(2,3,4-trichlorophenylsulfonyl)-1H-indazol-3-yl)benzoic acid]
275 |  | O=C(O)c1ccc(-c2nn(S(=O)(=O)c3ccccc3OC(F)(F)F)c3ccccc23)cc1 [Example 15A, 4-(1-(2-(trifluoromethoxy)phenylsulfonyl)-1H-indazol-3-yl)benzoic acid]
182 |  | O=C(O)c1ccc(-c2nn(S(=O)(=O)c3cccc4ccccc34)c3ccccc23)cc1 [Example 15B, 4-(1-(naphthalen-1-ylsulfonyl)-1H-indazol-3-yl)benzoic acid]
4470 |  | O=C(O)c1ccc(-c2nn(S(=O)(=O)c3cccc4nonc34)c3ccccc23)cc1 [Example 15D, 4-(1-(benzo[c][1,2,5]oxadiazol-4-ylsulfonyl)-1H-indazol-3-yl)benzoic acid]
513 |  | Cc1ccc(C#N)c(S(=O)(=O)n2nc(-c3ccc(C(=O)O)cc3)c3ccccc32)c1 [Example 15E, 4-(1-(2-cyano-5-methylphenylsulfonyl)-1H-indazol-3-yl)benzoic acid]
389 |  | COC(=O)c1sccc1S(=O)(=O)n1nc(-c2ccc(-c3nnn[nH]3)cc2)c2ccccc21 [Example 21A, methyl 3-(3-(4-(1H-tetrazol-5-yl)phenyl)-1H-indazol-1-ylsulfonyl)thiophene-2-carboxylate]
575 |  | O=S(=O)(c1ccc(F)cc1Br)n1nc(-c2ccc(-c3nnn[nH]3)cc2)c2ccccc21 [Example 21B, 3-(4-(1H-tetrazol-5-yl)phenyl)-1-(2-bromo-4-fluorophenylsulfonyl)-1H-indazole]
